Experimental findings from ChEMBL document CHEMBL3832078 are described below.

Holding throughout (type): ADME, organism-based
A short description of series [1]: (§1) Pharmacokinetic parameters for Levofloxacin evaluated after multiple oral or IV administration of 250, 500 or 750 mg Levofloxacin, to male and/or female subjects of variable age ranges and health status. Further details: dose 500 mg, dose 750 mg, dose 250 mg, route iv, route oral. The following applies: human, in vivo; for CL renal: read-out: CL_renal.
Series [2] relates to Homo sapiens. The series is described as §1. Set-up: dose 500 mg, dose 750 mg, dose 250 mg, route iv, route oral. The following applies: in vivo.
A short description of series [3]: (§2) Pharmacokinetic parameters for Levofloxacin evaluated after oral or IV single dose administration of 250, 500 or 750 mg Levofloxacin to male and/or female subjects of variable age ranges and health status. Set-up: dose 250 mg, dose 500 mg, dose 750 mg, route oral, route iv. Particulars: human, in vivo.
Series [4] has as its system Homo sapiens. The series is described as §2. Further details: dose 250 mg, dose 500 mg, dose 750 mg, route oral, route iv. The following applies: in vivo.

Molecules are shown by their SMILES. Values joined by “and” are separate entries in the source; they are usually repeats but may differ in a detail not shown here. Equal entries are not always repeated.

`C[C@H]1COc2c(N3CCN(C)CC3)c(F)cc3c(=O)c(C(=O)O)cn1c23.C[C@H]1COc2c(N3CCN(C)CC3)c(F)cc3c(=O)c(C(=O)O)cn1c23.O` [LEVOFLOXACIN]: the half-life (usually the time in which the quantity being followed falls by half) in series [1] (iv) was 7.9 h; in series [1] (po), 8.8 h; in series [3] (iv), 6.4 h. Further, the CL renal in series [1] (iv) came out at 99 mL/min; in series [1] (po) it was 116 mL/min; in series [3] (iv, read-out: CL_renal) it was 112 mL/min. The apparent clearance (CL/F) (usually clearance divided by bioavailability, as obtained after extravascular dosing) in series [1] (po) was 175 mL/min; in series [2] (iv), 154 mL/min and 126 mL/min and 158 mL/min; in series [2] (po), 143 mL/min; in series [4] (iv) it was 175 mL/min and 126 mL/min. Moreover, the time to peak (Tmax) (commonly the time at which the peak concentration occurs) turned out to be 1.4 h in series [1] (po) and 1 h in series [3] (iv). Also, the Vd/F – broadly, the apparent distribution volume after extravascular dosing – in series [1] (po) is 102 L; in series [2] (iv), 111 L and 80 L and 91 L; in series [2] (po) it was 100 L; in series [3] (po), 112 L; in series [4] (iv) it was 90 L and 75 L; in series [4] (po) it was 83 L and 89 L and 62 L and 67 L. The area under the curve (AUC) (commonly concentration integrated over time) in series [2] is 72.5 mcg.hr/mL [middle of 5 runs]. The peak concentration (Cmax) – broadly, the peak of the concentration-time curve – in series [2] was 8.6 mcg/mL [middle of 5 runs]. Moreover, the t1/2 in series [2] (iv) came to 7 h; in series [4] (iv) it was 7.5 h.
